A word on the melting point: it is the temperature, or range, at which the solid turns liquid.

This is an account of results in patent publication US6590118B1, “Aromatic compounds” (Novo Nordisk A/S, priority 1999, dated 2003).

The structures appear in SMILES notation.

Turning to `COC(=O)c1ccc(C(=O)c2ccc(NC(=O)c3cccc([N+](=O)[O-])c3)cc2)cc1C(=O)OC` [Compound 114, 4-[4-(3-Nitrobenzoylamino)benzoyl]phthalic acid dimethyl ester], the melting point lay in the range of 144 to 146 °C.

`O=C(Cc1ccc(O)c([N+](=O)[O-])c1)Nc1ccccc1Oc1ccc(C(=O)O)c(C(=O)O)c1` [Compound 174, 4-{2-[2-(4-Hydroxy-3-nitrophenyl)-acetylamino]phenoxy}phthalic acid] displayed a melting point of 187.8 to 189.9 °C.

`COC(=O)c1ccc(C(=O)c2ccccc2NC(=O)c2cccc([N+](=O)[O-])c2)cc1C(=O)OC` [Compound 115, 4-[2-(3-Nitrobenzoylamino)benzoyl]phthalic acid dimethyl ester] showed a melting point of 133 to 137 °C.

Regarding `CC(=O)Nc1ccccc1Oc1ccc(C#N)c(C#N)c1` [Compound 94, N-[2-(3,4-Dicyanophenoxy)phenyl]acetamide], the melting point lay in the range of 152.2 to 153.7 °C.

For the compound `O=C(Cc1cc([N+](=O)[O-])ccc1Cl)Nc1ccccc1Oc1ccc(C(=O)O)c(C(=O)O)c1` [Compound 175, 4-{2-[2-(2-Chloro-5-nitrophenyl)acetylamino]phenoxy}phthalic acid], the melting point fell in the range of 176 to 178.2 °C.

In turn, `O=C(O)c1ccc(Oc2ccccc2NC(=O)c2cccc([N+](=O)[O-])c2)c(C(=O)O)c1` [Compound 122, 4-[2-(3-Nitrobenzoylamino)phenoxy]isophthalic acid] registered a melting point of 255 to 257 °C.

As for `O=C(O)c1cccc(NC(=O)c2ccccc2Oc2ccc(C(=O)O)c(C(=O)O)c2)c1` [Compound 134, 4-[2-(3-Carboxyphenylcarbamoyl)phenoxy]phthalic acid], the melting point lay within 202 to 208 °C.

In turn, `O=C(Nc1ccccc1Sc1ccc(C(=O)O)c(C(=O)O)c1)c1cccc([N+](=O)[O-])c1` [Compound 125, 4-[2-(3-Nitrobenzoylamino)phenylsulphenyl]phthalic acid] returned a melting point of 172.8 to 173.9 °C.

`O=C(O)c1cc(Oc2ccccc2NC(=O)c2cccc([N+](=O)[O-])c2)cc(C(=O)O)c1` [Compound 121, 5-[2-(3-Nitrobenzoylamino)phenoxy]isophthalic acid] displayed a melting point of 184 to 190 °C.

As to `O=C(Nc1ccc(Oc2ccc(C(=O)O)c(C(=O)O)c2)cc1)c1cccc([N+](=O)[O-])c1` [Compound 123, 4-[4-(3-Nitrobenzoylamino)phenoxy]phthalic acid], the melting point was in the range of 225 to 227 °C.

The compound `N#Cc1ccc(Oc2ccccc2NC(=O)c2cccc([N+](=O)[O-])c2)cc1C#N` [Compound 176, N-[2-(3,4-Dicyanophenoxy)phenyl]-3-nitrobenzamide] yielded a melting point of 176.5 to 178.1 °C.
